# Literature values as cited in the CATMoS acute toxicity set (Mansouri et al. 2021).
# Where “and” joins values, the source holds several entries; their conditions need not be identical. Identical values can stand only once.
# Experiment: rat acute oral toxicity
# Settings: in vivo
# From the text: […]The data set underlying the modeling effort for this project was initially compiled by NICEATM and U.S. EPA’s CCTE. Briefly, LD50 data were collected from rat acute oral systemic toxicity tests, including limit tests, ranges/confidence intervals, and discrete LD50 values. The full data set included 21,200 LD50 entries for 15,688 substances. […] Data were reviewed to ensure that LD50 values with obvious errors in the extracted data such as unit conversion errors (e.g., comma and decimal separator misplacements) were either fixed or removed. After this review, 16,209 LD50 values remained. Many of the chemicals represented had multiple LD50 entries, requiring that a single representative value per Chemical Abstracts Service Registry Number (CASRN) identifier be defined to facilitate modeling efforts. Based on ATWG feedback and to define the representative LD50 as a protective value while accounting for the distribution across multiple LD50s, the median of the lowest quartile was computed using only discrete LD50 values (omitting limit test data and range and confidence interval data). A detailed summary of the data compilation is available online on the NICEATM webpage dedicated to the collaborative modeling project (NTP 2020).
# […][…] For categorical designations, limit test and range/confidence interval LD50 data were integrated wherever possible. As such, the number of chemicals with end point values/calls varies across the modeling end points (Table 3) based on whether chemicals had representative LD50 values and/or other data. If a chemical had both, the representative value was used to determine categorical calls rather than limit test data. Some data were useable only for certain end points and categories depending on the thresholds. For example, ranges that spanned multiple hazard categories were considered only for the binary (very toxic/nontoxic) end points and omitted from rendering a determination for hazard category assignment.
# […]The final data set comprising 11,992 chemicals was split into training and evaluation sets […], respectively. This process was performed semirandomly by ordering chemicals based on the five end points (categorical and continuous LD50 values) and partitioning every fourth record into the evaluation set accordingly. This approach was taken to ensure an equivalent distribution of the LD50 values and the different hazard categories between the training and the evaluation sets without supervised sampling of the chemicals based on structures (Figure 1A). The sources of the chemical structures were also kept equivalent between the two sets, with chemical structures obtained from DSSTox, being the highest quality, representing over 75% of each set (Figure 1B).
row,Structure (SMILES),LD50
1,CC(=O)O[C@H]1C[C@@H]2CC[C@@H]3[C@H](CC[C@@]4(C)[C@H]3C[C@H]([N+]3(C)CCCCC3)[C@@H]4OC(C)=O)[C@@]2(C)C[C@@H]1[N+]1(C)CCCCC1,202 mg/kg
2,Cc1ncc(CSSCc2cnc(C)c(O)c2CO)c(CO)c1O,6000 mg/kg
3,Clc1cc(Cl)c(Cl)c(-c2cc(Cl)c(-c3cc(Cl)c(Cl)c(Cl)c3)c(Cl)c2Cl)c1,19200 mg/kg
4,CCN(CC)C(=S)S,1000 mg/kg
5,COP(=O)(OC1CCCCC1)SC (stereo not given),240 mg/kg
6,CN(C)[C@@H]1C(O)=C(C(N)=O)C(=O)[C@@]2(O)C(O)=C3C(=O)c4c(O)cccc4[C@@](C)(O)[C@H]3[C@H](O)[C@@H]12,4800 mg/kg
7,C#CCSP(=O)(NC(=O)CC)OC (stereo not given),500 mg/kg
8,C1CCN2C[C@@H]3C[C@@H](C[C@H]2C1)N1CCCC[C@@H]31,960 mg/kg
9,COC(=O)C1CCc2cc(C3CCCCC3)ccc21 (stereo not given),410 mg/kg and 254 mg/kg
10,COC1CC=C2CCN3CCC4=C(CC(=O)OC4)C23C1 (stereo not given),320 mg/kg
11,Cc1ncc(CNC(=O)N(CCCl)N=O)c(N)n1,113 mg/kg
12,O=C1C=CC(=O)N1c1ccccc1Cl,520 mg/kg
13,Nc1nc2ccc(Br)cc2o1,500 mg/kg
14,O=C(CO)c1coc(=O)c2c(O)cccc12,250 mg/kg
15,N#CC(CCN1CCC(C(N)=O)(N2CCCCC2)CC1)(c1ccccc1)c1ccccc1,320 mg/kg
16,NCCNCc1ccccc1O,3700 mg/kg
17,Nc1ccc(N=Nc2ccc(O)cc2)cc1,1950 mg/kg
18,NC(=S)SSC(N)=S,1950 mg/kg
19,CN1CCN(CC(=O)N/N=C/c2ccc([N+](=O)[O-])o2)CC1,990 mg/kg and 960 mg/kg and 833 mg/kg
20,Clc1cccc(C2CCCCC2)c1Cl,4750 mg/kg
21,CN(C)N=O,37 mg/kg
22,CCCCc1ccc2c(S(=O)(=O)O)cc(CCCC)cc2c1,1250 mg/kg
23,C1CSCCS1,2770 mg/kg
24,O=C1CCc2cc(C(=O)CCCN3CCN(c4ccccc4)CC3)ccc2N1,500 mg/kg
25,N#CCc1ccc(Cl)cc1,50 mg/kg

row,Structure (SMILES),LD50
1,O=C(C(F)(F)F)C(F)(F)Cl,85 mg/kg
2,CCCCCCOC(=O)C(O)c1ccccc1 (stereo not given),17000 mg/kg
3,CCCOP(=O)(OCCC)Oc1cnn(C)c(=O)c1OC,15 mg/kg
4,CN(C)CCCN1c2ccccc2Sc2cccnc21,610 mg/kg
5,COc1ccc(N)cc1Cl,550 mg/kg
6,CN(C)S(=O)(=O)c1cc(Cl)c(N)cc1Cl,4090 mg/kg
7,COc1ccc2c(c1)N(CCCN(C)C)c1ccccc1S2,730 mg/kg
8,CCCCNC(=S)N(CCCC)CCCC,3000 mg/kg
9,CN(C)C(=S)c1ccc2c(c1)OCO2,79 mg/kg
10,CCC(C)NP1(=S)OCc2cc([N+](=O)[O-])ccc2O1 (stereo not given),125 mg/kg
11,Cc1cc(C)c(C(=O)Cl)c(C)c1,2300 mg/kg
12,O=C(O)C(F)(F)C(F)(F)C(F)(F)C(F)(F)C(F)(F)C(F)(F)C(F)(F)C(F)F,821 mg/kg
13,Cc1ccc(NCCCc2ccccc2)cc1,1600 mg/kg
14,CCOC(=O)C(NCCNC(C(=O)OCC)c1ccccc1O)c1ccccc1O (stereo not given),800 mg/kg
15,CCOC(C1=NCCCN1)c1cccc(Cl)c1 (stereo not given),695 mg/kg
16,CC[N+](C)(C)C(C)CC(c1ccccc1)c1ccccc1 (stereo not given),1000 mg/kg
17,FC(F)(F)C(Cl)(Cl)C(Cl)(Cl)C(F)(F)F,800 mg/kg
18,C=CCOC(=O)Cc1ccccc1,650 mg/kg
19,O=C(CN1CCNCC1)NC1CCCCC1,3900 mg/kg
20,COc1ccc(O)c(C(N)=O)c1,1900 mg/kg
21,O=C(CCCN1CC=C(n2c(=O)[nH]c3ccccc32)CC1)c1ccc(F)cc1,750 mg/kg
22,CCOC(=O)C1(c2ccccc2)CCN(CCOCC2CCCO2)CC1 (stereo not given),135 mg/kg
23,COc1ccc(N)c(S(=O)(=O)O)c1,10000 mg/kg
24,CCOC(=O)Nc1ccc(NCc2ccc(F)cc2)nc1N,1660 mg/kg
25,CCCN1C[C@H](CSC)C[C@@H]2c3cccc4[nH]cc(c34)C[C@H]21,8.4 mg/kg

row,Structure (SMILES),LD50
1,C[C@]12CCC(=O)C=C1C=C[C@@H]1[C@@H]2CC[C@@]2(C)[C@H]1CC[C@@]2(O)CCC(=O)O,650 mg/kg
2,CC(C)CCC(C)Nc1ccc(NC(C)CCC(C)C)cc1 (stereo not given),750 mg/kg
3,COc1ccc2c(=O)c3ccccc3oc2c1CN1CCCCC1,183 mg/kg
4,COP(=O)(OC)OC(=C(Cl)Br)c1ccc(Cl)cc1Cl,107 mg/kg
5,C=CC(=O)OCCN(CC)CC,770 mg/kg
6,OCc1ccc(OCCn2ccnc2)cc1,4860 mg/kg
7,Cc1ncc(CS)c(CO)c1O,3000 mg/kg
8,CC(O)(c1ccc(Cl)cc1)c1ccc(Cl)cc1,500 mg/kg
9,CCC(C)C(CN(C)C)c1cc(F)ccc1OC (stereo not given),300 mg/kg
10,CNC(=O)Oc1ccccc1C(OC)OC,160 mg/kg
11,CNC(=O)Oc1cccc2c1OC(C)(C)C2O (stereo not given),18 mg/kg
12,CC(=O)NC(N)=S,50 mg/kg
13,N#CC(O)c1cccc(Oc2ccccc2)c1 (stereo not given),800 mg/kg
14,O=C(Nc1nnc(CCN2c3ccccc3Sc3ccccc32)s1)c1ccccc1,3220 mg/kg
15,CCCCc1ccc(C(=O)O)nc1,480 mg/kg
16,CCCCCCCCc1ccc(C(C[n+]2ccccc2)OCCCC)cc1 (stereo not given),250 mg/kg
17,C[N+](C)([O-])c1ccc(N=Nc2ccccc2)cc1,2200 mg/kg
18,CCC(C)C(=O)OC1C(OC(C)=O)c2c(ccc3ccc(=O)oc23)OC1(C)C (stereo not given),1210 mg/kg
19,CCCCN(CCCCO)N=O,1800 mg/kg
20,COC(=O)CC1CCCCC1,2500 mg/kg
21,C=C1CC[C@H](O)C/C1=C/C=C1\CCC[C@]2(C)[C@@H]([C@H](C)CCCC(C)C)CC[C@@H]12,42 mg/kg
22,Cc1ccc(CCOC(=O)c2cccnc2)cc1,3500 mg/kg
23,C[N+]1(CC2COC(c3ccccc3)(C3CCCCC3)O2)CCCCC1 (stereo not given),494 mg/kg
24,CC1OCCO1,2900 mg/kg
25,CCCCOCCOCCOCOCCOCCOCCCC,1750 mg/kg

row,Structure (SMILES),LD50
1,CS/C(C)=N/OC(=O)N(C)SN(C)C(=O)O/N=C(\C)SC,66 mg/kg
2,Cc1cccc2sc(N)nc12,500 mg/kg
3,CCCCCCCCCCF,5 mg/kg
4,FC(F)(F)c1cccc(-n2nc(OCCCN3CCCCCC3)c3cccnc32)c1,780 mg/kg
5,COc1ccccc1N1CCN(CCC(=O)c2ccc(N3CCOCC3)cc2)CC1,400 mg/kg
6,O=C(O)CSc1cccc2cccc(CCl)c12,2500 mg/kg
7,CC(=O)C1=C(O)[C@@H]2[C@H]3c4c[nH]c5cccc(c45)C[C@H]3C(C)(C)N2C1=O,36 mg/kg
8,CC(=O)c1ccc(O)c(C(N)=O)c1,1700 mg/kg
9,CC1=[N+](C)C2CCC1(c1ccccc1)c1ccccc12 (stereo not given),707 mg/kg
10,COc1ccc2cc(C(C)C(=O)OCCOCCO)ccc2c1 (stereo not given),638 mg/kg
11,CC1CCCCN1CCCOC(=O)c1ccc(OC2CCCCC2)cc1 (stereo not given),2340 mg/kg
12,CN(C)C=C1C(=O)N(c2ccccc2)N=C1c1ccccc1,890 mg/kg
13,CC(=O)OC1c2cccc(O)c2C(=O)c2c(O)cccc21,347 mg/kg
14,C=CCn1c(=O)[nH]c(=O)n(CC=C)c1=O,930 mg/kg
15,Nn1cnnc1,4800 mg/kg and 13600 mg/kg
16,CC(C)NCC(O)c1ccccc1Cl (stereo not given),450 mg/kg and 445 mg/kg
17,NN=C(N)N,500 mg/kg
18,Cc1ccc(C(C)OC(=O)C2(C)CCC(C(=O)O)C2(C)C)cc1 (stereo not given),2810 mg/kg
19,N[C@@H](CC(=O)O)C(=O)O,7940 mg/kg
20,c1ccc(-c2ccc(C(c3ccccc3)n3ccnc3)cc2)cc1 (stereo not given),1460 mg/kg
21,OCC1(CO)CC=CCC1,1750 mg/kg
22,CCON(CC)N=O,1000 mg/kg
23,c1ccc2c(c1)OCO2,580 mg/kg
24,Oc1cccc(Cl)c1-c1ccccc1,3500 mg/kg
25,CN(c1ccc(Cl)cc1Br)c1c([N+](=O)[O-])cc([N+](=O)[O-])cc1C(F)(F)F,4.5 mg/kg

row,Structure (SMILES),LD50
1,CCS(=O)CCSP(=S)(OC)OC (stereo not given),100 mg/kg
2,COC(=S)SSC(=S)OC,240 mg/kg
3,CCSCCOc1ccc([N+](=O)[O-])cc1,826 mg/kg
4,N#Cc1ccccc1CN1CCc2sccc2C1,228 mg/kg
5,CC(C)OC(=O)COc1cc(Cl)c(Cl)cc1Cl,495 mg/kg
6,C=CCC#N,115 mg/kg
7,Cc1cc(-n2c(C)nc3ccccc3c2=O)n(-c2ccccc2)n1,1800 mg/kg
8,O=c1c2ccccc2c2ccc3c4c(ccc1c24)c1ccc2c(=O)c4ccccc4c4nn3c1c24,13900 mg/kg
9,CC(Oc1ccc2ccccc2c1)C(O)=Nc1ccccc1 (stereo not given),15000 mg/kg
10,CN1CCN(CC(=O)NN=Cc2ccc([N+](=O)[O-])o2)CC1,1350 mg/kg
11,CCOP(=S)(OCC)OCCS(=O)(=O)CC,90 mg/kg
12,CC(N)=S,301 mg/kg
13,c1nc(NC2CC2)c2ncn(CC3CC3)c2n1,160 mg/kg
14,CCCCNS(=O)(=O)c1ccccc1,2050 mg/kg
15,C=C(C)C(=O)OCCN(CC)CC,4700 mg/kg
16,O=C(C=Cc1ccccc1)OCC=Cc1ccccc1,4200 mg/kg
17,CCOC(=O)c1ccccc1S(=O)(=O)NC(=O)Nc1nc(Cl)cc(OC)n1,4100 mg/kg
18,CC(Oc1ccc(Oc2ncc(Cl)cc2Cl)cc1)C(=O)N1CCCO1 (stereo not given),500 mg/kg
19,c1ccc2c(OCCN3CCCC3)ccnc2c1,280 mg/kg
20,Clc1cc(Cl)c2nsnc2c1Cl,1620 mg/kg
21,CN(C)c1ccc(N=Nc2cccc(Br)c2)cc1,13000 mg/kg
22,C1COCCOCCOCCO1,2830 mg/kg
23,C=CCSCC1(C(C)CCC)C(=O)N=C(O)NC1=O (stereo not given),702 mg/kg
24,NC(=S)Nc1cc(Cl)ccc1Cl,300 mg/kg
25,CCOC(=O)NNc1nncc2ccccc12,318 mg/kg and 598 mg/kg
